Measured values published in US8912144B2, “Method for treating stroke via administration of NEP1-40 and inosine” (Children's Medical Center Corporation, priority 2003, dated 2014).
Entries after “also recorded” stand apart in the source; their conditions may differ.

Legend:
[1] = Skilled forelimb-reaching (food pellet retrieval) task after stroke; assay type: in vivo, rat; settings: for food pellet retrieval with impaired paw, % of baseline: long-term study
Procedure: All procedures were carried out in accordance with NIH Guidelines with the approval of Children's Hospital Animal Care and Use Committee. Unilateral in-farcts were induced in the sensorimotor cortex of adult Sprague-Dawley rats (275-300 g; Charles River Laboratories, Wilmington, Mass.) using the photothrombotic model of focal ischemia (Markgraf et al., 1993). Briefly, rats were anesthetized with a combination of ketamine (75 mg/kg) and Domitor (medetomidine; 0.5 mg/kg) and a 15 mm skin incision was made at the midline rostral to the posterior suture. A craniotomy was performed over the sensorimotor cortex using a hand-held drill to open a window that spanned medio-laterally between the sagittal sinus and temporal ridge, and rostro-caudally between Bregma +2.5 mm and Bregma −3.5 mm. The photosensitive dye Rose Bengal was injected into the femoral vein, and a fiber-optic cable connected to a xenon light source was centered over the craniotomy, focusing light directly on the exposed region of the brain for 30 minutes. A green filter fitted over the bulb restricted illumination to ˜525 nm, a wavelength that excites Rose Bengal and causes it to release free radical species. The subsequent damage to endothelial cells in exposed portions of the cortical vasculature causes platelet aggregation, resulting in severe focal ischemia. […] Control animals were generated using the same surgical procedure but without photo-activation of Rose Bengal. Animals with strokes were randomly assigned to receive a continuous infusion of either saline (0.9%, Baxter Scientific; n=12), inosine (50 mM in saline, Sigma-Aldrich Co., St. Louis, Mo.; n=12), NEP1-40 (500 μM in 2.5% DMSO/97.5% saline; n=12), or inosine +NEP1-40 (n=12) into the cisterna magna using osmotic minipumps (0.25 μl/h, Alzet model 2004, Durect Corpora-tion, Palo Alto, Calif.). In addition to these, a separate set of animals with the same 4 groups (n=12 in each) was created for a long-term behavioral study. Because CSF drug concentrations presumably require several hours to achieve steady-state levels when delivered via slow-releasing osmotic pumps, all animals received a 25 μl intraventricular bolus of the appropriate agent prior to pump placement. Pumps were tucked between the shoulder blades and infusion needles were secured onto the cranium with a silicon-based glue. The incision was closed with silk sutures and cleaned with betadine and ethanol pads. For 72 hours following surgery, animals received twice-daily, subcu-taneous injections of Buprenex (buprenorphine; Reckitt Benkiser Pharmaceuticals Inc., Richmond, Va.) for pain management.
In animals in which both behavioral testing and anatomical tracing was performed, animals were tested at 7, 14, 21, and 28 days after surgery, whereas in the long-term behavioral study, minipumps were removed after 4 weeks and testing was continued weekly for another 4 weeks. All testing was done by an experimenter blind to the animals' treatments. A skilled forelimb-reaching task was used to test functional recovery after stroke. The task requires the rat to reach with either paw through a narrow slit in a Plexiglas box, grasp a banana-flavored food pellet (Bio-Serv, Inc., Frenchtown, N.J.) from a platform, and bring it successfully to the mouth (Allred and Jones, 2004; Luke et al., 2004). Three days prior to and during training, animals were maintained on a restricted diet of banana-flavored pellets to remove novelty-induced hesitation and to increase motivation. Rats were trained 30-60 minutes per day with each paw for two weeks or until they reached a baseline performance of 20-30 successful reaches in a two-minute period. At the end of the training period but prior to surgery, each animal was tested for the number of pellets it successfully grasped and ate in a two-minute trial, making certain that animals were motivated and stress-free. […]

[2] = Basso-Beatty-Bresnahan (BBB) locomotor test after dorsal hemisection of the spinal cord; assay type: in vivo, rat; settings: i.c.v. (50 mM, 0.25 μl/hour) or i.v. (260 mM, 10 μl/hour) for 4 weeks
Procedure: To test the effects of inosine on spinal cord injury, the dorsal half of the spinal cord in rats was transected, severing the descending CST and other pathways. CST loss severely disrupted fine, skilled behaviors. Inosine was then administered either intra-cerebroventricularly (50 mM, 0.25 μl/hour) or intravenously (260 mM, 10 μl/hour) for 4 weeks. […] Complete transection of the corticospinal tract was verified histologically. The effectiveness of inosine was clinically relevant, since it avoids the risk of intracerebral infection.

In the case of `OC[C@H]1O[C@@H](n2cnc3c(O)ncnc32)[C@H](O)[C@@H]1O` [inosine], the “food pellet retrieval with impaired paw, outcome in words” value (“food pellet retrieval … in words” for short) ([1]; 4-week study) is reported as “superior to that of controls at 1 week”, the “food pellet retrieval … in words” value ([1]; eight-week (long-term) study) is reported as “significantly better than that of saline-treated controls from week 2 on” and the “food pellet retrieval … in words” value ([1]; eight-week (long-term) study, listed as Inosine) is reported as “strongly enhanced the effect of NEP1-40”. The “food pellet retrieval with impaired paw, % of baseline” value ([1]; week eight (4 weeks after pump removal)) was ~80%, the “food pellet retrieval with impaired paw, % of baseline” value ([1]; week four) was ~70% and the “performance with the unaffected (unimpaired) paw” value ([1]; paw ipsilateral to the stroke) was “performed normally; also recorded: No differences were detected”. For the same molecule, the “food pellet retrieval with impaired paw, percentage of baseline (pre-operative) level” value ([1]; week 4 after stroke, 4-week study) was “approximately 80%” and the “performance on BBB test for general locomotor activity” value [2] was “enhanced performance; also recorded: returned to near-normal level of performance”.
